Laboratory results reported in BigSolDB 2.1.

Sc1nc2ccccc2[nH]1
solubility (mole fraction)
Conditions	283.15 K	288.15 K	293.15 K	298.15 K	303.15 K	308.15 K	313.15 K	318.15 K	323.15 K
in 2-butoxyethanol	0.0459	0.0463	0.0469	0.0475	0.0484	0.0491	0.0498	0.0507	0.0515
in 2-ethoxyethanol	0.0577	0.0583	0.059	0.0599	0.0607	0.0615	0.0623	0.0634	0.0646
in 2-methoxyethanol	0.0682	0.0691	0.0703	0.0717	0.0729	0.0742	0.0758	0.0775	0.0793
in 2-propoxyethanol	0.0497	0.0502	0.0506	0.0511	0.0519	0.0526	0.0535	0.0545	0.0555
in MIBK	0.00859	0.00884	0.00913	0.00945	0.00983	0.0102	0.0106	0.011	0.0114
in ethyl formate	0.00169	0.0018	0.00197	0.00211	0.00228	0.0025	0.00273	0.003	0.00323
in ethylene glycol	0.0137	0.0147	0.0162	0.0175	0.0193	0.0206	0.022	0.0238	0.0254
in isobutanol	0.00371	0.0046	0.00556	0.00638	0.00724	0.00813	0.0092	0.0103	0.0114
in isopropyl acetate	0.00245	0.00255	0.00272	0.00283	0.00303	0.00318	0.00337	0.00364	0.00397
in n-butyl acetate	0.00529	0.00538	0.00551	0.00564	0.00577	0.00597	0.00614	0.00637	0.00662
in sec-butanol	0.00591	0.00729	0.00851	0.00972	0.011	0.0126	0.014	0.0159	0.0177
